According to US20200237759A1, “DOSAGE REGIME AND METHOD FOR TREATING PULMONARY ARTERIAL HYPERTENSION” (Altavant Sciences GmbH, priority 2019, published 2020):

What was measured:
clinical = settings: human, plasma, oral, 100 mg
[1] = Part 2 MAD plasma pharmacokinetics, BID oral KAR5585 for 14 days; settings: for tmax: Median
[2] = 100 mg (Cohort 2) to 400 mg (Cohort 4) BID fed, 4-fold increase in dose
[3] = 100 mg BID fasted, Cohort 1, Day 1 AM, Mean
[4] = 100 mg BID fasted, Cohort 1, Day 14, Mean
[5] = 100 mg BID fed, Cohort 2, Day 1 AM, Mean
[6] = 100 mg BID fed, Cohort 2, Day 1 PM, Geo. Mean
[7] = 100 mg BID fed, Cohort 2, Day 1 PM, Mean
[8] = 100 mg BID fed, Cohort 2, Day 7 AM, Geo. Mean
[9] = 100 mg BID fed, Cohort 2, Day 7 AM, Mean
[10] = 100 mg BID fed, Cohort 2, Day 7 PM, Geo. Mean
[11] = 100 mg BID fed, Cohort 2, Day 14 AM, Geo. Mean
[12] = 100 mg BID fed, Cohort 2, Day 14 AM, Mean
[13] = 100 mg KAR5585 BID, fasted (Part 2, Cohort 1)
[14] = 200 mg BID fed, Cohort 3, Day 1 AM, Geo. Mean
[15] = 200 mg BID fed, Cohort 3, Day 1 PM, Geo. Mean
[16] = 200 mg BID fed, Cohort 3, Day 7 AM, Geo. Mean
[17] = 200 mg BID fed, Cohort 3, Day 7 AM, Mean
[18] = 200 mg BID fed, Cohort 3, Day 7 PM, Geo. Mean
[19] = 200 mg BID fed, Cohort 3, Day 7 PM, Mean
[20] = 200 mg BID fed, Cohort 3, Day 14 AM, Geo. Mean
[21] = 200 mg BID fed, Cohort 3, Day 14 AM, Mean
[22] = 400 mg BID fed, Cohort 4, Day 1 AM, Geo. Mean
[23] = 400 mg BID fed, Cohort 4, Day 1 PM, Geo. Mean
[24] = 400 mg BID fed, Cohort 4, Day 7 AM, Geo. Mean
[25] = 400 mg BID fed, Cohort 4, Day 7 PM, Geo. Mean
[26] = 400 mg BID fed, Cohort 4, Day 7 PM, Mean
[27] = 400 mg BID fed, Cohort 4, Day 14 AM, Geo. Mean
[28] = 400 mg BID fed, Cohort 4, Day 14 AM, Mean

concentration at 24 h (clinical): 19.7 ng/mL
increase in mean AUC0-12, Day 1 [1, 2]: 7.0 fold
increase in mean AUC0-12, Day 14 [1, 2]: 4.6 fold
increase in mean AUC0-24, Day 1 [1, 2]: 6.45 fold
increase in mean AUC0-24, Day 14 [1, 2]: 4.45 fold
increase in mean Cmax, Day 1 [1, 2]: 6.9 fold
increase in mean Cmax, Day 14 [1, 2]: ~4.5 fold
AUC0-12 [1, 3]: 741 ng·h/mL
Cmax [1, 3]: 121 ng/mL
t1/2 [1, 3]: 3.43 h
tmax ([1]; 100 mg BID fasted, Cohort 1, Day 1 AM): 3.0 h
AUC0-12 [1, 4]: 1280 ng·h/mL
AUC0-24 [1, 4]: 1650 ng·h/mL
Cmax [1, 4]: 194 ng/mL
t1/2 [1, 4]: 18.8 h
tmax ([1]; 100 mg BID fasted, Cohort 1, Day 14): 3.0 h
t1/2 ([1]; 100 mg BID fed, Cohort 2, Day 1 AM, Geo. Mean): 4.16 h
AUC0-12 [1, 5]: 470 ng·h/mL
Cmax [1, 5]: 85.9 ng/mL
tmax ([1]; 100 mg BID fed, Cohort 2, Day 1 AM): 2.0 h
AUC0-12 [1, 6]: 714 ng·h/mL
AUC0-24 [1, 6]: 1160 ng·h/mL
AUC0-∞ [1, 6]: 1090 ng·h/mL
Cmax [1, 6]: 119 ng/mL
AUC0-12 [1, 7]: 748 ng·h/mL
AUC0-24 [1, 7]: 1220 ng·h/mL
tmax ([1]; 100 mg BID fed, Cohort 2, Day 1 PM): 3.0 h
AUC0-12 [1, 8]: 1050 ng·h/mL
AUC0-∞ [1, 8]: 1380 ng·h/mL
t1/2 [1, 8]: 5.24 h
Cmax [1, 9]: 168 ng/mL
t1/2 [1, 9]: 5.31 h
tmax ([1]; 100 mg BID fed, Cohort 2, Day 7 AM): 3.0 h
AUC0-12 [1, 10]: 875 ng·h/mL
AUC0-24 [1, 10]: 1930 ng·h/mL
AUC0-∞ [1, 10]: 1700 ng·h/mL
Cmax [1, 10]: 106 ng/mL
t1/2 [1, 10]: 7.91 h
Cmax ([1]; 100 mg BID fed, Cohort 2, Day 7 PM, Mean): 112 ng/mL
tmax ([1]; 100 mg BID fed, Cohort 2, Day 7 PM): 6.0 h
RCmax ([1]; 100 mg BID fed, Cohort 2, Day 14 AM, Day 14/Day 1 accumulation ratio, Geo. Mean): 1.90
AUC0-12 [1, 11]: 900 ng·h/mL
AUC0-24 [1, 11]: 1220 ng·h/mL
AUC0-∞ [1, 11]: 1780 ng·h/mL
Cmax [1, 11]: 155 ng/mL
t1/2 [1, 11]: 19.0 h
AUC0-12 [1, 12]: 943 ng·h/mL
AUC0-24 [1, 12]: 1270 ng·h/mL
Cmax [1, 12]: 168 ng/mL
t1/2 [1, 12]: 19.6 h
tmax ([1]; 100 mg BID fed, Cohort 2, Day 14 AM): 2.0 h
time to peak plasma concentrations (range), Day 1 ([1]; 100 mg KAR5585 BID, Part 2 Cohort 1 (fasted state)): 2.0 to 6.0 h
median tmax Day 14 ([1]; 100 mg KAR5585 BID, fasted): 3.0 hour postdose
mean peak concentration relative to corresponding peak mean concentration of KAR5585, Day 1 [1, 13]: approximately 7.25 fold
mean peak concentration relative to corresponding peak mean concentration of KAR5585, Day 14 [1, 13]: ~9.1 fold
half-life, Day 14 ([1]; 100 mg KAR5585 BID, fasted state): 18.8 h
median tmax Day 14 ([1]; 100 mg KAR5585 BID, fed): 3.0 hour postdose
AUC0-12 [1, 14]: 1620 ng·h/mL
AUC0-∞ [1, 14]: 1980 ng·h/mL
t1/2 [1, 14]: 4.41 h
AUC0-12 ([1]; 200 mg BID fed, Cohort 3, Day 1 AM, Mean): 1700 ng·h/mL
tmax ([1]; 200 mg BID fed, Cohort 3, Day 1 AM): 3.0 h
AUC0-24 [1, 15]: 3540 ng·h/mL
AUC0-∞ [1, 15]: 2640 ng·h/mL
Cmax [1, 15]: 307 ng/mL
t1/2 [1, 15]: 5.95 h
AUC0-12 ([1]; 200 mg BID fed, Cohort 3, Day 1 PM, Mean): 2000 ng·h/mL
tmax ([1]; 200 mg BID fed, Cohort 3, Day 1 PM): 4.0 h
RCmax ([1]; 200 mg BID fed, Cohort 3, Day 7 AM, Day 7/Day 1 accumulation ratio, Mean): 1.00
AUC0-∞ [1, 16]: 2610 ng·h/mL
Cmax [1, 16]: 332 ng/mL
t1/2 [1, 16]: 4.57 h
AUC0-∞ [1, 17]: 2800 ng·h/mL
Cmax [1, 17]: 359 ng/mL
t1/2 [1, 17]: 4.61 h
tmax ([1]; 200 mg BID fed, Cohort 3, Day 7 AM): 4.0 h
AUC0-12 [1, 18]: 1490 ng·h/mL
AUC0-24 [1, 18]: 3620 ng·h/mL
AUC0-∞ [1, 18]: 2270 ng·h/mL
Cmax [1, 18]: 212 ng/mL
t1/2 [1, 18]: 6.48 h
AUC0-12 [1, 19]: 1540 ng·h/mL
AUC0-24 [1, 19]: 3810 ng·h/mL
AUC0-∞ [1, 19]: 2280 ng·h/mL
Cmax [1, 19]: 222 ng/mL
tmax ([1]; 200 mg BID fed, Cohort 3, Day 7 PM): 8.0 h
AUC0-12 [1, 20]: 1670 ng·h/mL
AUC0-24 [1, 20]: 2200 ng·h/mL
t1/2 [1, 20]: 24.1 h
AUC0-12 [1, 21]: 1820 ng·h/mL
AUC0-24 [1, 21]: 2380 ng·h/mL
Cmax [1, 21]: 319 ng/mL
t1/2 [1, 21]: 25.0 h
tmax ([1]; 200 mg BID fed, Cohort 3, Day 14 AM): 3.0 h
AUC0-∞ [1, 22]: 3400 ng·h/mL
t1/2 [1, 22]: 3.71 h
AUC0-∞ ([1]; 400 mg BID fed, Cohort 4, Day 1 AM, Mean): 3780 ng·h/mL
tmax ([1]; 400 mg BID fed, Cohort 4, Day 1 AM): 3.0 h
AUC0-∞ [1, 23]: 6860 ng·h/mL
t1/2 [1, 23]: 5.3 h
tmax ([1]; 400 mg BID fed, Cohort 4, Day 1 PM): 4.0 h
RCmax ([1]; 400 mg BID fed, Cohort 4, Day 7 AM, Day 7/Day 1 accumulation ratio, Mean): 2.00
AUC0-∞ [1, 24]: 7480 ng·h/mL
Cmax [1, 24]: 960 ng/mL
t1/2 [1, 24]: 3.89 h
t1/2 ([1]; 400 mg BID fed, Cohort 4, Day 7 AM, Mean): 3.94 h
tmax ([1]; 400 mg BID fed, Cohort 4, Day 7 AM): 4.0 h
RAUC0-12 ([1]; 400 mg BID fed, Cohort 4, Day 7 PM, Day 7/Day 1 accumulation ratio, Geo. Mean): 1.50
AUC0-12 [1, 25]: 4360 ng·h/mL
AUC0-∞ [1, 25]: 6450 ng·h/mL
Cmax [1, 25]: 574 ng/mL
t1/2 [1, 25]: 5.08 h
AUC0-12 [1, 26]: 4610 ng·h/mL
AUC0-∞ [1, 26]: 6520 ng·h/mL
Cmax [1, 26]: 608 ng/mL
t1/2 [1, 26]: 5.10 h
tmax ([1]; 400 mg BID fed, Cohort 4, Day 7 PM): 6.0 h
AUC0-12 [1, 27]: 4160 ng·h/mL
AUC0-24 [1, 27]: 5410 ng·h/mL
AUC0-∞ [1, 27]: 8120 ng·h/mL
Cmax [1, 27]: 717 ng/mL
t1/2 [1, 27]: 30.4 h
AUC0-12 [1, 28]: 4350 ng·h/mL
Cmax [1, 28]: 749 ng/mL
t1/2 [1, 28]: 30.6 h
tmax ([1]; 400 mg BID fed, Cohort 4, Day 14 AM): 3.0 h
tmax Day 7 evening dose ([1]; 400 mg KAR5585 BID, fed): 6 h
study day by which steady-state plasma levels were achieved ([1]; BID oral KAR5585 for 14 days): ≤ 7 days
SMILES: Nc1nc(O[C@H](c2ccc(Cl)cc2-c2ccccc2)C(F)(F)F)cc(N2CCC3(CC2)CN[C@H](C(=O)O)C3)n1 [KAR5417, (S)-8-(2-amino-6-((R)-1-(5-chloro-[1,1′-biphenyl]-2-yl)-2,2,2-trifluoroeth-oxy)pyrimidin-4-yl)-2,8-diazaspiro[4.5]decane-3-carboxylic acid]
